Test results from patent EP0415456A2, “Xanthine compounds” (priority 1989, dated 1991).
Read-outs that look alike come from different tables or passages of the source.

Key:
[1] = tested on: zig-zag strips of the trachea; test: effects on passive Schultz-Dale reaction (antigen-induced contraction of sensitized trachea strips); parameters: species or system guinea pigs; details: Cavia porcellus, read-out: Passive S-D Reaction IC₅₀
Protocol: After 24 hours, the guinea pigs were stunned and exsanguinated, and then trachea were removed. The zig-zag strips of the trachea were prepared by the method of Emmerson, et al. [J. Pharm. […] The strips were suspended in Krebs-Henseleit solution at 37°C […] Antigen (EWA) was then introduced in the solution (final concentration; 1μg/ml), and the contraction was measured by […] After the contraction reached stable plateau, the compounds were cumulatively added in order to get concentration-relaxation curves. […]

[2] = tested on: death induced by Platelet-Activating Factor (PAF); test: effect of inhibiting death induced by Platelet-Activating Factor (PAF); type: in vivo; details: Mus musculus; oral, dd strain mice, 40 µg/kg PAF i.v. 1 hour after administration; highest dose 100 mg/kg; read-out: MED (mg/kg) for Inhibiting Death Induced by PAF
Protocol: A test compound (100 mg/kg) was orally administered to dd strain mice (male animals, 28 to 32g) and 40 µg/kg of PAF (manufactured by Avanti Polar Lipids Co.) was administered via tail veins 1 hour after the administration according to the method of Carlson et al. [Agents and Actions, 21, 379 (1987)]. The mortality rates of compound-treated groups were compared with those of matched control groups, assessed during the same experimental session, by the Fisher's exact probability test. The cases wherein the level of significance (p value) is 0.05 or less are considered to be effective with respect to the inhibition. The above procedure was repeated, using the test compound in a decreasingly small quantity so as to find out the Minimum Effective Dosage (MED) wherein […] be observed between the test and control groups.

[3] = tested on: glycerol-induced renal failure model; test: renal-protecting effect (glycerol-induced renal failure model); type: in vivo; details: male Wistar rats; for suppression of increases of the serum creatinine and of urine-nitrogen: 0.01 - 10 mg/kg i.p., 24 hours after 50% glycerol s.c. (p < 0.05); for pathological examination of removed kidneys: state of kidneys: i.p., left kidney removed 24 hours after 50% glycerol s.c.
Protocol: A renal failure is a state wherein the renal function is lowered and the homeostasis of a body fluid can be no more maintained. It is known that an acute renal failure characteristic of uriniferous tubule disorder is caused by subcutaneous or intramuscular injection of glycerol to rats [Can. J. Physiol.
Male Wistar rats were kept deprived or water for 18 hours, and served for the test. A test compound was intraperitoneally administered to the rats (dosage: 1 mℓ/kg) and the rats were anesthetized with ether and 50% glycerol was subcutaneously administered (dosage: 0.8mℓ/100g) to the rats, pinching the dorsal skin. Twenty four hours after the administration of glycerol, the rats were anesthetized with ether and 5 mℓ of blood were collected from the abdominal aorta. The collected blood was allowed to stand for 30 minutes or longer and then centrifuged at 3,000 rpm for 10 minutes, and the amounts of the serum creatinine and urine-nitrogen (UN) contained in the serum were determined by auto analyzer (Olympus AU510) or measured by a creatinine test Wako (Jaffé method) and UN Test Wako (diacetylmonooxime direct method). Both are manufactured by Wako Pure Chemicals Co.
On the other hand, the left kidneys of the blood-sampled rats were removed and placed in formalin-filled vial bottles, and used as samples for the pathological examination.

Wistar rats = test: diuretic effect; type: in vivo; details: 25 mg/kg oral, urine collected for 6 hours
Protocol: Wistar rats (male: 150 - 300 g) were starved for 18 hours prior to the administration of the test compounds. […] Urine was collected for 6 hours after the administration. Urine volume was measured and the electrolytes (Na+ and K+) in the urine were determined with a flame photome[…], Hitachi Ltd., Japan). All parameters are expressed as relative values of control.

[4] = concentration to produce 50% relaxation of EWA (1µg/mℓ)-contracted trachea strips of passively sensitized guinea pigs

Row | Compound | IC50 [1] | minimal effective dose [2] | suppression of increases of the serum creatinine and of urine-nitrogen [3] | pathological examination of removed kidneys: state of kidneys [3] | IC50 [1, 4] | Increase in K⁺ excretion (%) (Wistar rats; relative to control) | Increase in Na⁺excretion (%) (Wistar rats; relative to control) | Increase in Urine (%) (Wistar rats; relative to control) | Na⁺/K⁺ (Wistar rats; relative value of control (control 1.00))
1 | Cn1c(=O)c2[nH]cnc2n(C)c1=O [Theophylline, 1,3-dimethylxanthine, reference compound] | 23 µM | 100 mg/kg | – | – | – | – | – | – | –
2 | CCCn1c(=O)c2[nH]c(C(C)Cc3ccncc3)nc2n(CCC)c1=O (centres unmarked) [Compound 7, 8-[1-methyl-2-(4-pyridyl)ethyl]-1,3-dipropylxanthine] | – | > 100 mg/kg | significantly suppressed | significantly improved | 2.7 µM | – | – | – | –
3 | CCCn1c(=O)c2[nH]c(C(C)Cc3csc(C)n3)nc2n(CCC)c1=O (centres unmarked) [Compound 8, 8-[1-Methyl-2-(2-methylthiazol-4-yl)ethyl]-1,3-dipropylxanthine] | – | 100 mg/kg | significantly suppressed | significantly improved | 0.88 µM | 22% | 138% | 82% | 1.95
